Results on 22 compounds are retold here after patent US6906078B2, “Method of using (H+/K+) ATPase inhibitors as antiviral agents” (Pharmacia Corporation, priority 1994, dated 2005).

Like-named read-outs stand apart in the source and are kept apart here.

In one data set the target is T1, (H+/K+)-ATPase (Canis lupus familiaris, UniProt P50996).
T1 construct: The microsomes retained at the 15%-30% sucrose interface, after centrifugation at 250,000×g for sixty minutes, were used as the source of (H^+/K^+)-ATPase; from tissue; host or cells: gastric glandular mucosa of mongrel dogs (microsomal fraction, lyophilized)
T1 sequence (P50996 whole entry): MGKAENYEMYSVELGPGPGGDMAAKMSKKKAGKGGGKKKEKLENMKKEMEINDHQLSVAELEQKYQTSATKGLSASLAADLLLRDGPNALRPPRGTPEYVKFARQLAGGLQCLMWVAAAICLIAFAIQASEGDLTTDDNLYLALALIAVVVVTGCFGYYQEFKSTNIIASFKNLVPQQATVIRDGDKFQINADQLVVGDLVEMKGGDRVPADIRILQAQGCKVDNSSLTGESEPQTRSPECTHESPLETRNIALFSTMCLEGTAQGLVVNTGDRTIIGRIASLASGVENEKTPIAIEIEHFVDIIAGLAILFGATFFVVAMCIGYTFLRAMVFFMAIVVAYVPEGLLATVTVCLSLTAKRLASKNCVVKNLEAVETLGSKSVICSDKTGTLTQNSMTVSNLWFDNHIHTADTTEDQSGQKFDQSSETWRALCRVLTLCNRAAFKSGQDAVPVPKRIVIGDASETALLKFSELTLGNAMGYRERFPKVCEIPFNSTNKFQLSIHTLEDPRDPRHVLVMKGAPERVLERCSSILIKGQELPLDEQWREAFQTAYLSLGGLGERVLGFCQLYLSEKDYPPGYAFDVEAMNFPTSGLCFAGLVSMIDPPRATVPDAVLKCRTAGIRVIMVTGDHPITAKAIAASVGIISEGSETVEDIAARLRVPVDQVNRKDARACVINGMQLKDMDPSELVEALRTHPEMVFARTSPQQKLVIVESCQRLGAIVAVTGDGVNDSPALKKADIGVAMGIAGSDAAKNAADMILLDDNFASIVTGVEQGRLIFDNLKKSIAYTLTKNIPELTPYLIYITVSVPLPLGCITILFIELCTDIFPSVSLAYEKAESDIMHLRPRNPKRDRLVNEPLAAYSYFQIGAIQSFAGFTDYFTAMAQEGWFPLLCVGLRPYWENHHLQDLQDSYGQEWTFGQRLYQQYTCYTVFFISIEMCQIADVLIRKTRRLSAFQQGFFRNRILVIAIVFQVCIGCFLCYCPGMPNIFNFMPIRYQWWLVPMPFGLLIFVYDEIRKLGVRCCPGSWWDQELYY
T1 sequence (P33704 whole entry partner): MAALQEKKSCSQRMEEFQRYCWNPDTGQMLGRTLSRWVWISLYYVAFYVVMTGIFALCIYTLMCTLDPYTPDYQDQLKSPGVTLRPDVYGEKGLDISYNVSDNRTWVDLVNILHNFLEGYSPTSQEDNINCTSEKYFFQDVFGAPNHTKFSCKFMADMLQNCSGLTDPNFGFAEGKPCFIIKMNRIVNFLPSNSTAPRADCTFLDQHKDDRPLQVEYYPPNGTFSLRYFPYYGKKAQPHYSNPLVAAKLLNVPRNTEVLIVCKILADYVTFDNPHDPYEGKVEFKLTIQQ
Put plainly: Inhibition of (H+/K+)-ATPase from canine gastric mucosa (inorganic phosphate release). The class given is biochemical. To be noted: canine gastric mucosa microsomes, pH 6.0, 30 min preincubation at 37° C.; read-out: (H+/K+)-ATPase IC50. How it is done:
Mongrel dogs weighing 15 to 25 kilograms were fasted for twenty-four hours, with water provided ad libitum. The animals were anesthetized with pentobarbital and the stomachs were removed. Subsequent tissue manipulations and subcellular fractionations were performed at 0° C. to 4° C. After the stomachs were cut open and rinsed with tap water, the antral and cardiac regions were removed and the remaining tissue was rinsed three times in saline. The glandular mucosa was removed mechanically, chopped finely in a medium containing 10 mM Tris hydrochloride (pH 7.4) and 250 mM sucrose, and homogenized. The homogenate was centrifuged at 20,000×g for twenty minutes and the pellet discarded. The supernatant was then centrifuged at 150,000×g for ninety minutes and the supernatant discarded. The pellet was resuspended in the Tris-HCl/sucrose medium by homogenization. Part (2 ml) of the resultant microsomal suspension was layered onto a step gradient consisting of 9 ml of 15% sucrose above 12 ml of 30% sucrose, each sucrose solution being buffered with 10 mM Tris hydrochloride (pH 7.4) containing 0.01% sodium azide. The microsomes retained at the 15%-30% sucrose interface, after centrifugation at 250,000×g for sixty minutes, were used as the source of (H^+/K^+)-ATPase. Microsomal preparations were lyophilized, a process that assured potassium ion permiability, and stored at −10° C. until used.
(H^+/K^+)-ATPase activity for each test compound was determined, in duplicate, by measuring the release of inorganic phosphate, which was assayed according to the method of J. ChandraRajan and L. Klein, Anal. Biochem., 72 , 407 (1976). The (H^+/K^+)-ATPase assay medium consisted of 20 mm mes-Tris (pH 6.0), 5 mM magnesium chloride, 25 mM sucrose, and 4 mM Tris-ATP with or without 20 mM potassium chloride in a total volume of 2 ml. Microsomal suspensions (20 to 60 mcl, containing about 25 mcg protein) were added to the assay medium, without Tris-ATP, and then preincubated with a test compound for thirty minutes at 37° C. The assay was initiated by adding Tris-ATP and the mixture was incubated another thirty minutes at 37° C. A 200-mcl aliquot of the assay mixture was then added to 1.4 ml of a solution consisting of 0.1 M sodium acetate (pH 4.0) and 10% sodium dodecylsulfate, followed by the addition of 200 mcl each of 1% ammonium molybdate and 1% ascorbic acid. At least fifteen minutes later, the optical absorbance at 870 nm (which was proportional to inorganic phosphate concentration up to 100 nmoles per tube, as determined by a standard curve) was obtained. Enzyme activity was linear with incubation time.
(H^+/K^+)-ATPase activity is represented by the difference between the measured activities in the presence of potassium-ion (K^+-stimulated) and in the absence of potassium ion (basal).

In a further data set the test system is gastric acid secretion. Kind of data set: Inhibition of gastric acid secretion in gastric fistula beagle dogs (histamine-stimulated). The class given is in vivo. The settings on record: for inhibition in vivo at 3 mg/kg: Canis lupus familiaris, 4 h, read-out: Gastric-Fistula Beagle % Inhibition (3 mg/kg dose). An excerpt:
Adult female beagle dogs weighing 6 to 11 kilograms obtained from Laboratory Research Enterprises (Kalamazoo, Mich.) or from Hazelton Research Animals (Cumberland, Va.) were surgically implanted with a simple Thomas-type gastric cannula. After recovery from surgery, the dogs were trained to stand quietly, fully conscious, in Pavlov-type dog restraining slings and were acclimated to intravenous infusion of histamine dihydrochloride. During the course of these studies, no dog was used more than once a week. All dogs were deprived of food, but not water, for 18 hours prior to each assay. Each dog was initially infused with 0.15 M sodium chloride solution at a constant rate of […]. The volume of gastric secretions, collected in plastic bottles affixed to the cannula, were measured to the nearest 0.1 ml at 30 minute intervals. One of the following protocols was followed, depending on the route chosen for administration of test compound.
Intravenous dosing: Following a 30-minute basal secretion period, test compounds were administered intravenously (i.v.). At the end of an additional 30 minute period, the saline infusion was replaced with histamine dihydrochloride in saline administered at a rate 15 mcg per kilogram of body weight per hour. Histamine stimulation was maintained for a maximum of four hours during which time gastric secretions were collected every 30 minutes. The pH and titratable acidity were determined for samples from each collection period.
Intragastric dosing: Following a 30-minute basal secretion period, he collection bottles were removed, dosing plugs here inserted, and test compounds were administered intragastrically (i.g.) At the end of a 30-minute drug absorption period, the stomachs were emptied, the collection bottles were reattached, and collections were resumed at 30-minute intervals. Simultaneously, the saline infusion was replaced with a continuous intravenous infusion of histamine dihydrochloride in saline administered for four hours at a rate 15 mcg per kilogram of body weight per hour.
Intraduodenal dosing: Dogs were also equipped with duodenal cannulas for intraduodenal (i.d.) administration of test compounds. Dosing was otherwise performed as described for intragastric dosing.
Data from each protocol were analyzed for three gastric sample variables: volume of gastric juice, acid concentration, and total acid output. Percent inhibition for each four-hour experimental period was determined for each parameter by comparison with 3 to 4 controls in which […]. Estimates of ED50's were determined from dose response curves.

The mark [1] stands for this setting: intraduodenal, 3 mg/kg i.d., histamine-stimulated, four-hour period.
Where [2] appears, read: iv, 3 mg/kg i.v., histamine-stimulated, four-hour period.

One may read the melting point as the temperature, or range, at which the solid turns liquid.

Consider `COc1ccc2[nH]c([S+]([O-])Cc3cccc(C)c3N)nc2c1` (stereo not drawn) [Example 36, 2-[[(5-Methoxy-1H-benzimidazol-2-yl)sulfinyl]methyl]-6-methylbenzenamine], for which the melting point lay in the range of 142 to 144 °C. For the same compound, the IC50 at (H+/K+)-ATPase amounted to 5.4 µM. Also, in the data set on gastric acid secretion (setting [1]), the inhibition in vivo at 3 mg/kg worked out at 72%. Besides, in the data set on gastric acid secretion (setting [2]), the inhibition in vivo at 3 mg/kg came out at 96%.

Turning to `Nc1ncccc1C[S+]([O-])c1nc2ccccc2[nH]1` (stereo not drawn) [Example 81, 3-[(1H-Benzimidazol-2-ylsulfinyl)methyl]-2-pyridinamine hydrate], the IC50 on (H+/K+)-ATPase was ≥ 100 µM. Further, the inhibition in vivo at 3 mg/kg in the data set on gastric acid secretion (iv) was found to be 41%.

On to `CCNc1cccc(C[S+]([O-])c2nc3ccccc3[nH]2)n1` (stereo not drawn) [Example 109, 6-[(1H-Benzimidazol-2-ylsulfinyl)methyl]-N-ethyl-2-pyridinamine], for which the IC50 on (H+/K+)-ATPase was 20 µM. Also, in the data set on gastric acid secretion (setting [1]), the inhibition in vivo at 3 mg/kg was 58%.

On to `Cc1ccc(N)c(C[S+]([O-])c2nc3ccccc3[nH]2)c1` (stereo not drawn) [Example 26, 2-[(1H-Benzimidazol-2-ylsulfinyl)methyl]-4-methylbenzenamine], for which, on (H+/K+)-ATPase, the IC50 is 2.1 µM. In addition, the inhibition in vivo at 3 mg/kg in the data set on gastric acid secretion (setting [2]) came to 67%.

Regarding `Nc1ccc(F)cc1C[S+]([O-])c1nc2ccccc2[nH]1` (stereo not drawn) [Example 76, 2-[(1H-Benzimidazol-2-ylsulfinyl)methyl]-4-fluorobenzenamine], the melting point lay in the range of 184 to 185 °C. In addition, the IC50 on (H+/K+)-ATPase was found to be 24.9 µM.

In the case of `COc1ccc2[nH]c([S+]([O-])Cc3cccc(N)n3)nc2c1` (stereo not drawn) [Example 91, 6-[[(5-Methoxy-1H-benzimidazol-2-yl)sulfinyl]-methyl]-2-pyridinamine], on (H+/K+)-ATPase, the IC50 stood at 4.5 µM. For the same compound, the inhibition in vivo at 3 mg/kg with gastric acid secretion (setting [2]) worked out at 46%.

The compound `Nc1cc(Cl)ccc1C[S+]([O-])c1nc2ccccc2[nH]1` (stereo not drawn) [Example 18, 2-[(1H-Benzimidazol-2-ylsulfinyl)methyl]-5-chlorobenzenamine] gave a melting point of 173.5 to 175.5 °C. The IC50 on (H+/K+)-ATPase came out at 24 µM. The inhibition in vivo at 3 mg/kg with gastric acid secretion (setting [2]) was found to be 13%.

Regarding `CC(=O)Nc1ccccc1C[S+]([O-])c1nc2ccccc2[nH]1` (stereo not drawn) [Example 6, N-[2-[(1H-Benzimidazol-2-ylsulfinyl)methyl]phenyl]acetamide], the melting point is 201 to 202.5 °C. For the same compound, the IC50 on (H+/K+)-ATPase is > 100 µM. The inhibition in vivo at 3 mg/kg with gastric acid secretion (setting [2]) came out at 37%.

`Cc1cccc(N)c1C[S+]([O-])c1nc2ccccc2[nH]1` (stereo not drawn) [Example 24, 2-[(1H-Benzimidazol-2-ylsulfinyl)methyl]-3-methylbenzenamine ¼ hydrate]: the IC50 at (H+/K+)-ATPase turned out to be 0.66 µM. Further, the inhibition in vivo at 3 mg/kg in the data set with gastric acid secretion (setting [2]) was 73%.

As for `Nc1ccc(C(F)(F)F)cc1C[S+]([O-])c1nc2ccccc2[nH]1` (stereo not drawn) [Example 49, 2-[(1H-Benzimidazol-2-ylsulfinyl)methyl]-4-(trifluoromethyl)benzenamine], the melting point lay within 185 to 187 °C. Besides, the IC50 at (H+/K+)-ATPase was > 100 µM. Also, in the data set with gastric acid secretion (setting [1]), the inhibition in vivo at 3 mg/kg is 16%.

In turn, `CCOc1ccc2[nH]c([S+]([O-])Cc3cc(C)ccc3N)nc2c1` (stereo not drawn) [Example 61, 2-[[(5-Ethoxy-1H-benzimidazol-2-yl)sulfinyl]-methyl]-4-methylbenzenamine] gave a melting point of 144 to 145 °C. The IC50 on (H+/K+)-ATPase was found to be 5.3 µM.

The compound `Nc1ccc(Cl)cc1C[S+]([O-])c1nc2ccccc2[nH]1` (stereo not drawn) [Example 16, 2-[(1H-Benzimidazol-2-ylsulfinyl)methyl]-4-chlorobenzenamine] showed a melting point of 210 to 211 °C. Besides, the IC50 on (H+/K+)-ATPase came to 130 µM. Also, the inhibition in vivo at 3 mg/kg in the data set with gastric acid secretion (setting [2]) came to 24%.

`CCc1cccc(C[S+]([O-])c2nc3ccccc3[nH]2)c1N` (stereo not drawn) [Example 38, 2-[(1H-Benzimidazol-2-ylsulfinyl)methyl]-6-ethylbenzenamine]: the IC50 at (H+/K+)-ATPase was 3.9 µM. Besides, in the data set with gastric acid secretion (setting [1]), the inhibition in vivo at 3 mg/kg came out at 21%.

Compound `CCc1ccc(N)c(C[S+]([O-])c2nc3ccccc3[nH]2)c1` (stereo not drawn) [Example 37, 2-[(1H-Benzimidazol-2-ylsulfinyl)methyl]-4-ethylbenzenamine] showed a melting point of 155 to 156 °C. Also, the IC50 at (H+/K+)-ATPase is 2 µM. For the same compound, in the data set on gastric acid secretion (setting [1]), the inhibition in vivo at 3 mg/kg came to 62%.

In turn, `CCCCc1ccc(N)c(C[S+]([O-])c2nc3ccccc3[nH]2)c1` (stereo not drawn) [Example 51, 2-[(1H-Benzimidazol-2-ylsulfinyl)methyl]-4-butylbenzenamine] gave a melting point of 146 to 148 °C. Further, the IC50 on (H+/K+)-ATPase was 2.6 µM. For the same compound, the inhibition in vivo at 3 mg/kg in the data set with gastric acid secretion (setting [1]) amounted to 19%.

Take `Cc1cccc(C[S+]([O-])c2nc3ccccc3[nH]2)c1N` (stereo not drawn) [Example 28, 2-[(1H-Benzimidazol-2-ylsulfinyl)methyl]-6-methylbenzenamine]: the melting point lay in the range of 156 to 157 °C. Further, the IC50 at (H+/K+)-ATPase is 3.2 µM. For the same compound, in the data set with gastric acid secretion (setting [1]), the inhibition in vivo at 3 mg/kg was found to be 44%. Moreover, in the data set with gastric acid secretion (setting [2]), the inhibition in vivo at 3 mg/kg stood at 93%.

Regarding `Cc1cccc2[nH]c([S+]([O-])Cc3ccccc3N)nc12.Cc1cccc2[nH]c([S+]([O-])Cc3ccccc3N)nc12.O` (stereo not drawn) [Example 8, 2-[[(4-Methyl-1H-benzimidazol-2-yl)sulfinyl]methyl]benzenamine hemihydrate], the IC50 at (H+/K+)-ATPase is 7.4 µM. For the same compound, the “Gastric-Fistula Beagle % Inhibition (3 mg/kg dose)” value in the data set with gastric acid secretion (3 mg/kg i.v., histamine-stimulated, four-hour period) turned out to be 60 i.v. %.

`Cc1cc(C)c(N)c(CSc2nc3ccccc3[nH]2)c1` [Example 29, 2-[(1H-Benzimidazol-2-ylthio)methyl]-4,6-dimethylbenzenamine]: the melting point was 139 to 141 °C.

For `CCOc1ccc2[nH]c(SCc3ccccc3N)nc2c1.O` (hydrate or solvate), the melting point lay within 87 to 89 °C.

`Nc1cccc(C[S+]([O-])c2nc3ccccc3[nH]2)n1` (stereo not drawn) [Example 85, 6-[(1H-Benzimidazol-2-ylsulfinyl)methyl]-2-pyridinamine]: at (H+/K+)-ATPase, the IC50 was 2.5 µM. Further, in the data set with gastric acid secretion (setting [2]), the inhibition in vivo at 3 mg/kg amounted to 59%.

Consider `COC(=O)c1cccc(C[S+]([O-])c2nc3ccccc3[nH]2)c1N` (stereo not drawn) [Example 69, Methyl 2-amino-3-[(1H-benzimidazol-2-ylsulfinyl)methyl]benzoate hydrate], for which the IC50 on (H+/K+)-ATPase was 153 µM. For the same compound, the inhibition in vivo at 3 mg/kg in the data set on gastric acid secretion (intraduodenal) was found to be 28%.

In the case of `Nc1ccccc1C[S+]([O-])c1nc2ccccc2[nH]1` (stereo not drawn) [Example 3, 2-[(1H-Benzimidazol-2-ylsulfinyl)methyl]benzenamine], the melting point lay within 164 to 165 °C. The IC50 at (H+/K+)-ATPase came out at 4.3 µM. The inhibition in vivo at 3 mg/kg with gastric acid secretion (setting [1]) came to 53%. In addition, in the data set on gastric acid secretion (setting [2]), the inhibition in vivo at 3 mg/kg was determined as 59%.
